In series [1] the test system is Capan-1 human pancreatic adenocarcinoma xenografts. As to the kind of experiment: therapy of Capan-1 xenografts in nude mice. The conditions noted are these: for therapeutic response (FIG. 2): 2.25 mg/kg protein dose twice weekly×2 weeks, compared with hMN-14 conjugate. It counts as in vivo. On the procedure: FIG. 2. Therapy in nude mice bearing s.c. human tumor xenografts using 2.25 mg/kg protein dose (0.064 mg/kg of drug dose) of MAb-P2PDox conjugates twice weekly×2 weeks in nude mice with Capan-1 human pancreatic adenocarcinoma xenografts (n=5).
Tumors were measured and mice weighed twice a week.
At 63 days after Capan-1 tumor injection (with therapy starting at 1 days post-innoculation), 0 of 10 mice were alive in the saline control, 10 of 10 mice were alive in mice treated twice weekly×2 weeks with 45 μg of hPAM4-P2PDox, 2 of 10 mice were alive in mice treated twice weekly×2 weeks with 45 μg of hA20-P2PDox, 0 of 10 mice were alive in mice treated twice weekly×4 weeks with 250 μg of hPAM4-SN-38, and 0 of 10 mice were alive in mice treated twice weekly×4 weeks with 250 μg of h20-SN-38.

In series [2] the test system is NCI-N87 human gastric carcinoma xenografts. As to the kind of experiment: therapy of NCI-N87 xenografts in nude mice. The format is in vivo. The settings on record: for therapeutic response (FIG. 3): 2.25 mg/kg protein dose twice weekly×2 weeks, compared with hMN-14 conjugate; for effect on tumors, one treatment cycle: 4×45 μg. The method, then:
FIG. 3A. Therapy in nude mice bearing s.c. human tumor xenografts using 2.25 mg/kg protein dose (0.064 mg/kg of drug dose) of MAb-P2PDox conjugates twice weekly×2 weeks in nude mice (n=7) with NCI-N87 human gastric carcinoma xenografts.
Tumor size was determined by caliper measurements of length (L) and width (W) with tumor volume calculated as (L×W^2)/2. Tumors were measured and mice weighed twice a week. Mice were euthanized if their tumors reached >1 cm^3 in size, lost greater than 15% of their starting body weight, or otherwise became moribund. Statistical analysis for the tumor growth data was based on area under the curve (AUC) and survival time. Profiles of individual tumor growth were obtained through linear curve modeling. An f-test was employed to determine equality of variance between groups prior to statistical analysis of growth curves. A two-tailed t-test was used to assess statistical significance between all the various treatment groups and non-specific controls. For the saline control analysis a one-tailed t-test was used to assess significance. Survival studies were analyzed using Kaplan-Meier plots (log-rank analysis), using the Prism GraphPad Software (v4.03) software package (Advanced Graphics Software, Inc.; Encinitas, Calif.). All doses in preclinical experiments are expressed in antibody amounts. In terms of drug, 100 μg of antibody (5 mg/kg) in a 20-g mouse, for example, carries 1.4 μg-2.8 μg ([…]) of P2PDox equivalent dose when using an ADC with 3-6 drugs/IgG.
Using this dosing regimen, we examined the therapeutic effect of hRS7-P2PDox in 2 human tumor xenograft models, Capan-1 (pancreatic cancer) and NCI-N87 (gastric cancer). Therapy began 7 days after tumor transplantation in nude mice.
Anti-TROP-2 antibody conjugate, hRS7-P2PDox, was evaluated in nude mice bearing NCI-N87 human gastric cancer xenografts by administering a single bolus protein dose of 9 mg/kg, 6.75 mg/kg, 4.5 mg/kg, 2.25 mg/kg, or 1 mg/kg. The therapy was started when the mean tumor volume (mTV) was 0.256 cm^3.
Further in vivo efficacy studies were performed in nude mice implanted with NCI-N87 human gastric cancer xenografts (FIG. 13A-F).
The effect of varying dosage schedule on anti-tumor efficacy was examined (FIG. 14, FIG. 19A-G). The experiment began 9 days after tumor implantation when mean tumor volume for all groups was 0.383 cm^3, and ended on day 93 (84 days after initiation of therapy).

For series [3], the system named is Trop-2-positive human pancreatic adenocarcinoma cell line (BxPC-3). As to the kind of experiment: ADCC with PBMCs, effector to target ratio 100:1. The format is cell-based. The settings on record: 33.3 nM. The method, then:
The ADCC activity of various hRS7-ADC conjugates was determined in comparison to hRS7 IgG (FIG. 17). PBMCs were purified from blood purchased from the Blood Center of New Jersey. A Trop-2-positive human pancreatic adenocarcinoma cell line (BxPC-3) was used as the target cell line with an effector to target ratio of 100:1. ADCC mediated by hRS7 IgG was compared to hRS7-Pro-2-PDox, hRS7-CL2A-SN-38, and the reduced and capped hRS7-NEM. All were used at 33.3 nM.

The test system of series [4] is Chronic Lymphocytic Leukemia (CLL). Nature of the series: treatment of CLL patients. The format is in vivo, human. On the procedure: Patients with previously untreated or relapsed CLL receive 4 doses of 70, 100 or 150 mg P2PDox-veltuzumab injected i.v. every two weeks. Only occasional mild to moderate transient injection reactions are seen and no other safety issues are observed, except for neutropenia, which can be controlled by interrupting therapy until improved or administering a G-CSF leukocyte stimulator, as per conventional practice. […] Objective responses are observed at all dose levels of P2PDox-veltuzumab, but with particularly high responses of 30% (mostly partial responses) at the highest dose. All serum samples evaluated for human anti-veltuzumab antibody (HAHA) are negative.

Series [5] deals with DDD of the RII form of PKA. The settings on record: cited from earlier work.
Series [6] relates to Capan-1, BxPC-3 and AsPC-1 human pancreatic tumor lines and AGS, NCI-N87 and LS147T human gastric and colonic tumor lines. As to the kind of experiment: cytotoxicity of P2PDox-mAb conjugates to target cells. The format is cell-based. The settings on record: not shown. The text has this: The cytotoxicity of P2PDox-mAb conjugates to target cells was examined. hRS7-P2PDox and hMN-15-P2PDox were cytotoxic to MDA-MB-468, AG S, NCI-N87 and Capan-1 solid tumor cell lines (not shown). hMN-14-P2PDox was cytotoxic to Capan-1, BxPC-3 and AsPC-1 human pancreatic tumor lines and AGS, NCI-N87 and LS147T human gastric and colonic tumor lines (not shown). hLL2-P2PDOx was cytotoxic to Daudi, Raji, Ramos and JVM-3 hematopoietic tumor lines (not shown). IC50 values for the conjugates were in the nanomolar concentration range (not shown).

The target in series [7] is T1, CEACAM5 (Homo sapiens, UniProt P06731).
T1 sequence (P06731 35-676): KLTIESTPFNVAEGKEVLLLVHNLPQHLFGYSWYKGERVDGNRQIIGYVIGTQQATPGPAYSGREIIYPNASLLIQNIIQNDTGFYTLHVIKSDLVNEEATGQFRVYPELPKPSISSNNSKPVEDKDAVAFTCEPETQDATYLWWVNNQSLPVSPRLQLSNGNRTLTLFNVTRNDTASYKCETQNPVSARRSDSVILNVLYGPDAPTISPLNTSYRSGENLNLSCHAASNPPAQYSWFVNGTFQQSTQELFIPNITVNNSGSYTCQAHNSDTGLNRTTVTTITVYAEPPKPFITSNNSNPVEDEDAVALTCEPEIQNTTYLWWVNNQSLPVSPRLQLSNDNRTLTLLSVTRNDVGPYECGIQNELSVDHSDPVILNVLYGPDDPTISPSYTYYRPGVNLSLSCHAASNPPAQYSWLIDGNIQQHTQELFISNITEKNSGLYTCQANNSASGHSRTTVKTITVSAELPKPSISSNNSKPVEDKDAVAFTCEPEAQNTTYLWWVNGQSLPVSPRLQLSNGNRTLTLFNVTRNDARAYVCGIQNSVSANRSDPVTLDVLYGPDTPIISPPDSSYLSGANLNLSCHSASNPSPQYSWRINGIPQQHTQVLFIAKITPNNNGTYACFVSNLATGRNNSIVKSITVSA
Nature of the series: antibody binding to target antigen after conjugation. On the procedure:
Retention of antibody binding was confirmed by cell binding assays comparing binding of the conjugate to unconjugated antibody (Chari, 2008, Acc Chem Res 41:98-107). The potency of the conjugate was tested in a 4-day MTS assay using appropriate target cells.

A short description of series [8]: MTD study of hLL1 conjugates in mice.
Description: The MTD of multiple injections, at a schedule of every four days for a total of four injections (q4dx4) was then determined, using protein doses between 25 μg to 150 μg per injection. At these doses, a cumulative dose of between 100 and 600 μg was given to the animals.
Series [9] has as its system HIV-1IIIB/MuLV infected splenocytes. As to the kind of experiment: HIV-1/MuLV infected cell challenge in mice. The settings on record: doses of 100-200 μg. It counts as in vivo. The method, then:
P4/D10-P2PDox is tested in vitro for its efficacy in eliminating HIV-1-infected cells among non-infected cells and in a mouse model by removing HIV-1/MuLV (murine leukemia virus) infected syngeneic cells from the intraperitoneal cavity.
A human T-cell line, CEM-1B, with a genetically integrated MuLV genome is infected with HIV-1IIIB, which leads to the production of pseudoviruses with the HIV-1 genome and the MuLV envelope (Adang et al., PNAS USA 1999, 96:12749-753; Hinkula et al., Cells Tissues Organs 2004, 177:169-184). These virus supernatants are used to infect splenocytes from C57B1/6×DBA F1 K^b/d mice transgenic for HLA-A201. Isogenic mice are challenged with HIV-1IIIB/MuLV infected splenocytes i.p. and are immediately given conjugated antibodies or free antibodies i.p. Ten days after challenge, mice are sacrificed and peritoneal cells collected. Peritoneal cells are pelleted and added to 1×10^6 HIV susceptible Jurkat T-cells or human PBMC grown in 24-well plates. From these secondary cultures, supernatant is removed and fresh medium added every 3-4 days. The amount of infectious HIV recovered in the supernatant is measured for 3 weeks by p24 ELISA.
To test the efficacy of P4/D10-P2PDox in vivo, mice are given isogeneic HIV/MuLV-infected cells together with conjugates intraperitoneally.

The subject of series [10] is metastatic ductal adenocarcinoma of the pancreas. As to the kind of experiment: treatment of a patient with metastatic pancreatic cancer. The format is in vivo, human. The method, then:
A person with metastatic ductal adenocarcinoma of the pancreas, who has relapsed after prior therapies with FOLFIRINOX followed by Nab-taxol (Abraxane®) plus gemcitabine is given PAM4-P2PDox ADC at a dose of 120 mg every other week for 4 courses, and after a 3-week delay, another course of 2 injections 2 weeks apart are given intravenously.

[11] abbreviates: twice weekly×2 weeks with 45 μg.

Take hRS7-SN-38 [reference compound]: the “therapeutic response (FIG. 2)” value in [1] is recorded as “better therapeutic responses”. Moreover, the “therapeutic response (FIG. 3)” value in [2] is “better therapeutic responses”.
Consider “hRS7 IgG: unconjugated humanized anti-TROP-2 antibody”, for which the “specific lysis (ADCC)” value in [3] is on record as 8.5%.
For hA20-P2PDox, the “therapeutic response (FIG. 2)” value in series [1] was “ineffective”. Moreover, in [1] (setting [11]), the “mice alive at 63 days after tumor injection” value (shortened to “mice alive at 63 days”) is 2 of 10. Moreover, in [2], the “therapeutic response (FIG. 3)” value is “ineffective” and the “effect on tumors, one treatment cycle” value was “little effect on tumor progression”. Also, the effect on survival entry in [2] (same dosage schedules (45 μg q4dx4, 90 μg weekly×2, 180 μg single)) was “no effect on survival”. Also, the “objective responses at the highest dose” value in series [4] (150 mg i.v. every two weeks, 4 doses, mostly partial responses) is listed as 30%. Besides, the “B-cell and CLL ablation” value in series [4] (all dosage levels) was “Rapid B-cell and CLL ablation”. The “human anti-veltuzumab antibody (HAHA) in serum samples” value in series [4] (human, in vivo) is listed as “negative”.
Consider QIEYVAKQIVDYAIHQA [SuperAKAP-IS], for which, in series [5], the “selectivity for the RII isoform of PKA compared with the RI isoform” value is reported as “five order of magnitude higher selectivity”.
For hMN-14-P2PDox, the “effect on tumors, one treatment cycle” value in series [2] is on record as “little effect on tumor progression”. Also, the cytotoxicity entry in series [6] is listed as “cytotoxic”.
As for “P2PDox-hMN-24: P2PDox conjugate printed as hMN-24 (anti-CEACAM5)”, the “effect of conjugation on antibody binding” value in [7] is “lack of effect of conjugation on antibody binding to target antigen”.
As for QIEYLAKQIVDNAIQQA [AKAP-IS], the Kd in series [5] (read-out: binding constant for DDD) is 0.4 nM.
For hLL1-P2PDox, in [8] (25 μg i.v. q4dx4), the “signs of toxicity (weight loss)” value was “no signs of toxicity”. Moreover, the “potency compared with 2-PDox conjugate of hLL1 in MTD study” value in series [8] (not shown) is given as “much more potent”. The “MTD for fractionated dosing” value in [8] (protein dose, every 4 days for 2 weeks (q4dx4), after analysis and repetition of the experiment) worked out at 45 µg. The “MTD for multiple injections” value in series [8] (q4dx4, from this experiment) came to 25 µg. In addition, in series [8] (single injection (not shown)), the “dose tolerated when administered as a single injection” value stood at 100 µg. In addition, the “protection by control conjugates” value in series [9] is “None of the P2PDox-conjugated control antibodies (hLL1 or hRS7) provide any protection”. The “effect on tumors, one treatment cycle” value in series [2] is “little effect on tumor progression”.

B1: hPAM4-P2PDox (conjugate, chains of the INN, looked up)
VH: QVQLQQSGAEVKKPGASVKVSCEASGYTFPSYVLHWVKQAPGQGLEWIGYINPYNDGTQYNEKFKGKATLTRDTSINTAYMELSRLRSDDTAVYYCARGFGGSYGFAYWGQGTLVTVSS
VL: DIQLTQSPSSLSASVGDRVTMTCSASSSVSSSYLYWYQQKPGKAPKLWIYSTSNLASGVPARFSGSGSGTDFTLTISSLQPEDSASYFCHQWNRYPYTFGGGTRLEIK
modifications: P2PDox (pro-2-pyrrolinodoxorubicin) payload
Take B1: in [1] (not shown), the “inhibition of tumor growth compared with the SN-38 conjugate of the same antibody” value is listed as “more effective at inhibiting growth”. Also, in series [1] (setting [11]), the “mice alive at 63 days” value is 10 of 10. Besides, the “shrinkage of the sum of the 3 target lesions in the liver” value in series [10] (120 mg every other week, CT at 8 weeks) was found to be 18%. Also, the “reduction of CA19-9 blood titer” value in series [10] (baseline value of 12,400) was 55%. In addition, the “hematological toxicity after the first course” value in series [10] (recovers before the second course) is “Grade 3 neutropenia”.

B2: hPAM4-SN-38: hPAM4 antibody conjugated to SN-38 (conjugate, chains of the INN, looked up)
VH: B1 VH
VL: B1 VL
modifications: SN-38 conjugate
Turning to B2, in series [1] (twice weekly×4 weeks with 250 μg), the “mice alive at 63 days” value is on record as 0 of 10.
